Activity calls are given as the source filed them. The rule behind the calls is not given here.
Legend:
[1] = system: HCT-116; test: Growth inhibition of human HCT116 cells after 7 days by clonogenic survival assay; type: functional; details: HCT-116, 168 h
[2] = molecular target: T1, Aurora kinase B (Homo sapiens, UniProt Q96GD4); test: Inhibition of human recombinant His-tagged aurora B expressed in baculovirus infected Sf21 insect cells by Western blot analysis
[3] = system: HCT-116; test: Cell cycle arrest in human HCT116 cells assessed as accumulation at G2/M phase at 40 uM after 24 to 48 hrs by propidium iodide staining based flow cytometry (reference value: 22.9 to 24%); type: functional
[4] = system: HCT-116; test: Induction of apoptosis in human HCT116 cells assessed as caspase 9 cleavage at 20 uM after 36 hrs by Western blot analysis; type: functional, cell-based
[5] = molecular target: T2, Aurora kinase A (Homo sapiens) (UniProt O14965); test: Inhibition of aurora A in human HCT116 cells assessed as decrease in histone H3 phosphorylation at Ser-10 at 20 uM by Western blot analysis; type: cell-based; details: TDE = time-dependent effect
T2 sequence (whole entry): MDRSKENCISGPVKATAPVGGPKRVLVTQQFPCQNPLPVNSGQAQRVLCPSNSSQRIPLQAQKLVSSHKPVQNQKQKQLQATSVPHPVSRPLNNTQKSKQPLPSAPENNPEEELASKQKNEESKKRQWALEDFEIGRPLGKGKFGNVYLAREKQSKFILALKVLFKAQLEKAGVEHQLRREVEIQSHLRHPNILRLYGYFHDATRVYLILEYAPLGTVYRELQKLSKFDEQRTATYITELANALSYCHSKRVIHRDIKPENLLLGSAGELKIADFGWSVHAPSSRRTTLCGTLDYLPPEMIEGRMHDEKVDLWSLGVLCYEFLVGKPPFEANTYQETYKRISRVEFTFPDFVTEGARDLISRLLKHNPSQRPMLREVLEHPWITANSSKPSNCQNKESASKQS

[6] = system: HCT-116; test: Induction of apoptosis in human HCT116 cells assessed as caspase 3 cleavage at 20 uM after 36 hrs by Western blot analysis; type: functional, cell-based
[7] = system: HCT-116; test: Cell cycle arrest in human HCT116 cells assessed as accumulation at G2/M phase at 10 uM after 24 to 48 hrs by propidium iodide staining based flow cytometry (reference value: 22.9 to 24%); type: functional
[8] = system: HCT-116; test: Cell cycle arrest in human HCT116 cells assessed as accumulation at S phase at 10 uM after 24 to 48 hrs by propidium iodide staining based flow cytometry (reference value: 13 to 18%); type: functional
[9] = system: HCT-116; test: Cell cycle arrest in human HCT116 cells assessed as accumulation at G1 phase after 24 to 48 hrs by propidium iodide staining based flow cytometry; type: functional
[10] = system: HCT-116; test: Induction of apoptosis in human HCT116 cells assessed as PARP cleavage at 20 uM after 36 hrs by Western blot analysis; type: functional, cell-based
[11] = molecular target: T3, Aurora kinase A (Homo sapiens, UniProt O14965); test: Inhibition of human recombinant N-terminal His6-tagged full-length aurora A expressed in Sf21 insect cells using ER-alpha as substrate after 25 mins by immunoblot analysis
T3 sequence (O14965 whole entry): T2 sequence (whole entry)

[12] = system: HCT-116; test: Cell cycle arrest in human HCT116 cells assessed as accumulation at sub-G1 phase at 20 uM after 48 hrs by propidium iodide staining based flow cytometry (reference value: 4%); type: functional
[13] = molecular target: T2, Aurora kinase A (Homo sapiens); test: Inhibition of aurora A phosphorylation at Thr-288 in human HCT116 cells at 20 uM by Western blot analysis; type: cell-based; details: TDE = time-dependent effect
[14] = system: HCT-116; test: Cell cycle arrest in human HCT116 cells assessed as accumulation at S phase at 40 uM after 24 to 48 hrs by propidium iodide staining based flow cytometry (reference value: 13 to 18%); type: functional
[15] = molecular target: T1, Aurora kinase B; test: Inhibition of aurora B in human HCT116 cells assessed as decrease in histone H3 phosphorylation at Ser-10 at 20 uM by Western blot analysis; type: cell-based; details: TDE = time-dependent effect
[16] = system: HCT-116; test: Cell cycle arrest in human HCT116 cells assessed as accumulation at G2/M phase at 20 uM after 24 to 48 hrs by propidium iodide staining based flow cytometry (reference value: 22.9 to 24%); type: functional
[17] = system: HCT-116; test: Cytotoxicity against human HCT116 cells assessed as decrease in cell viability after 24 hrs by WST-8 based CCK-8 assay; type: functional
[18] = system: HCT-116; test: Cell cycle arrest in human HCT116 cells assessed as accumulation at S phase at 20 uM after 24 to 48 hrs by propidium iodide staining based flow cytometry (reference value: 13 to 18%); type: functional
[19] = molecular target: T1, Aurora kinase B; test: Inhibition of aurora B phosphorylation at Thr-232 in human HCT116 cells at 20 uM by Western blot analysis; type: cell-based; details: TDE = time-dependent effect
[20] = species: Homo sapiens; test: Selectivity ratio of IC50 for human recombinant N-terminal His6-tagged full-length aurora A to IC50 for human recombinant His-tagged aurora B
[21] = system: HCT-116; test: Cell cycle arrest in human HCT116 cells assessed as accumulation at G1 phase at 10 uM after 24 to 48 hrs by propidium iodide staining based flow cytometry (reference value: 51 to 58.9%); type: functional
[22] = system: HCT-116; test: Downregulation of cyclin D1 expression in human HCT116 cells at 20 uM by Western blot analysis; type: functional, cell-based; details: TDE = time-dependent effect
[23] = system: HCT-116; test: Cell cycle arrest in human HCT116 cells assessed as accumulation at G1 phase at 40 uM after 24 to 48 hrs by propidium iodide staining based flow cytometry (reference value: 51 to 58.9%); type: functional
[24] = system: HCT-116; test: Downregulation of cyclin B1 expression in human HCT116 cells at 20 uM by Western blot analysis; type: functional, cell-based; details: TDE = time-dependent effect
[25] = molecular target: T4, Aurora kinase C (Homo sapiens) (UniProt Q9UQB9); test: Inhibition of aurora C phosphorylation at Thr-198 in human HCT116 cells at 20 uM by Western blot analysis; type: cell-based; details: TDE = time-dependent effect
T4 sequence (whole entry): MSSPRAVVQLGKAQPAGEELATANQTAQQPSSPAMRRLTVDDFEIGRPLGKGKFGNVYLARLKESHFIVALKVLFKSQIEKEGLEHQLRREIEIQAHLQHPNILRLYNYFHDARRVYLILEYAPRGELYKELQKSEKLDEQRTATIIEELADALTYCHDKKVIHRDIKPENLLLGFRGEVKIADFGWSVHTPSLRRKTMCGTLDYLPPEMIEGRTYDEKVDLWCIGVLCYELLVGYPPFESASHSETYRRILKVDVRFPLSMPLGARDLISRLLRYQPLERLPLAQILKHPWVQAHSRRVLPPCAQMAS

[26] = system: HCT-116; test: Cell cycle arrest in human HCT116 cells assessed as accumulation at G1 phase at 20 uM after 24 to 48 hrs by propidium iodide staining based flow cytometry (reference value: 51 to 58.9%); type: functional
[27] = system: HCT-116; test: Induction of apoptosis in human HCT116 cells assessed as caspase 7 cleavage at 20 uM after 36 hrs by Western blot analysis; type: functional, cell-based

T1 sequence (Q96GD4 whole entry): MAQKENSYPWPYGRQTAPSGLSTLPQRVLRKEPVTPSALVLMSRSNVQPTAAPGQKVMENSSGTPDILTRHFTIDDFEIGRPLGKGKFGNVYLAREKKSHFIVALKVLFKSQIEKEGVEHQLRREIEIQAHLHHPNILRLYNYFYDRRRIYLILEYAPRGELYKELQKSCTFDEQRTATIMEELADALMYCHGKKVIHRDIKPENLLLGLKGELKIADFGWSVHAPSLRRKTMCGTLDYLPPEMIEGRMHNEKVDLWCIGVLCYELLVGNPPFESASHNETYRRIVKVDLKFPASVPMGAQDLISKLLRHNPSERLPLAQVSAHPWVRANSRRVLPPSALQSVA

SMILES: COc1cccc(C2CC(c3ccc4ccccc4c3O)=NN2C(=S)Nc2ccccc2OC)c1 (stereo not given)
- GI50 ([1]; read-out: GI50): 3920 nM
- GI50 ([1]; read-out: pGI50 (converted)): 3890 nM

SMILES: COc1cccc(NC(=S)N2N=C(c3ccc4ccccc4c3O)CC2c2cccc(OC)c2)c1 (stereo not given)
- GI50 ([1]; read-out: GI50): 272 nM
- GI50 ([1]; read-out: pGI50 (converted)): 269 nM

SMILES: COc1ccc(C2CC(c3ccc4ccccc4c3O)=NN2C(=S)Nc2ccc(OC)cc2OC)cc1 (stereo not given)
- GI50 ([1]; read-out: GI50): 2470 nM
- GI50 ([1]; read-out: pGI50 (converted)): 2450 nM

SMILES: COc1ccc(NC(=S)N2N=C(c3c(O)ccc4ccccc34)CC2c2ccccc2OC)cc1 (stereo not given)
- GI50 ([1]; read-out: GI50): 742 nM
- GI50 ([1]; read-out: pGI50 (converted)): 741 nM

SMILES: COc1ccccc1C1CC(c2ccc3ccccc3c2O)=NN1C(=S)Nc1ccccc1 (stereo not given)
- GI50 ([1]; read-out: GI50): 742 nM
- GI50 ([1]; read-out: pGI50 (converted)): 741 nM

SMILES: COc1ccc(NC(=S)N2N=C(c3ccc4ccccc4c3O)CC2c2ccccc2OC)cc1 (stereo not given)
- GI50 ([1]; read-out: GI50): 369 nM
- GI50 ([1]; read-out: pGI50 (converted)): 372 nM

SMILES: COc1ccc(C2CC(c3ccc4ccccc4c3O)=NN2C(=S)Nc2cccc(OC)c2)cc1 (stereo not given)
- IC50 [2]: 8530 nM
- Activity [3]: 30.8%
- Activity [4]: Active
- inhibition [5]: Tde
- Activity [6]: Active
- Activity [7]: 26.8%
- Activity [8]: 23.7%
- Activity [9]: Dose-dependent effect
- Activity [10]: Active
- IC50 [11]: 105000 nM
- Activity [12]: 17%
- inhibition [13]: Tde
- Activity [14]: 29.4%
- inhibition [15]: Tde
- Activity [16]: 25.7 - 27%
- Activity [17]: Dose-dependent effect
- Activity [18]: 27.4 - 28%
- inhibition [19]: Tde
- Ratio IC50 [20]: 12.3
- Activity [21]: 45.6%
- Activity [22]: Tde
- Activity [23]: 36.8%
- GI50 ([1]; read-out: GI50): 196 nM
- GI50 ([1]; read-out: pGI50 (converted)): 195 nM
- Activity [24]: Tde
- inhibition [25]: Tde
- Activity [26]: 18 - 43.2%
- Activity [27]: Active

SMILES: COc1ccc(NC(=S)N2N=C(c3ccc4ccccc4c3O)CC2c2cccc(OC)c2)cc1 (stereo not given)
- GI50 ([1]; read-out: GI50): 318 nM
- GI50 ([1]; read-out: pGI50 (converted)): 316 nM

SMILES: COc1ccccc1C1CC(c2c(O)ccc3ccccc23)=NN1C(=S)Nc1cc(OC)c(OC)c(OC)c1 (stereo not given)
- GI50 ([1]; read-out: GI50): 994 nM
- GI50 ([1]; read-out: pGI50 (converted)): 1000 nM

SMILES: COc1ccc(NC(=S)N2N=C(c3ccc4ccccc4c3O)CC2c2ccccc2OC)c(OC)c1 (stereo not given)
- GI50 ([1]; read-out: GI50): 4200 nM
- GI50 ([1]; read-out: pGI50 (converted)): 4170 nM

SMILES: COc1cccc(C2CC(c3ccc4ccccc4c3O)=NN2C(=S)Nc2cc(OC)c(OC)c(OC)c2)c1 (stereo not given)
- GI50 ([1]; read-out: GI50): 201 nM
- GI50 ([1]; read-out: pGI50 (converted)): 200 nM

SMILES: COc1ccccc1C1CC(c2c(O)ccc3ccccc23)=NN1C(=S)Nc1ccccc1 (stereo not given)
- GI50 ([1]; read-out: GI50): 2500 nM
- GI50 ([1]; read-out: pGI50 (converted)): 2510 nM

SMILES: COc1ccccc1NC(=S)N1N=C(c2c(O)ccc3ccccc23)CC1c1ccccc1OC (stereo not given)
- GI50 ([1]; read-out: GI50): 3970 nM
- GI50 ([1]; read-out: pGI50 (converted)): 3980 nM

SMILES: COc1ccccc1C1CC(c2ccc3ccccc3c2O)=NN1C(=S)Nc1cc(OC)c(OC)c(OC)c1 (stereo not given)
- GI50 ([1]; read-out: GI50): 223 nM
- GI50 ([1]; read-out: pGI50 (converted)): 224 nM

SMILES: COc1ccccc1NC(=S)N1N=C(c2ccc3ccccc3c2O)CC1c1ccccc1OC (stereo not given)
- GI50 ([1]; read-out: GI50): 4920 nM
- GI50 ([1]; read-out: pGI50 (converted)): 4900 nM

SMILES: COc1ccc(C2CC(c3ccc4ccccc4c3O)=NN2C(=S)Nc2cc(OC)c(OC)c(OC)c2)cc1 (stereo not given)
- GI50 ([1]; read-out: GI50): 208 nM
- GI50 ([1]; read-out: pGI50 (converted)): 209 nM

SMILES: COc1cccc(C2CC(c3ccc4ccccc4c3O)=NN2C(=S)Nc2ccccc2)c1 (stereo not given)
- GI50 ([1]; read-out: GI50): 321 nM
- GI50 ([1]; read-out: pGI50 (converted)): 324 nM

SMILES: COc1ccc(C2CC(c3ccc4ccccc4c3O)=NN2C(=S)Nc2ccccc2OC)cc1 (stereo not given)
- GI50 ([1]; read-out: GI50): 3540 nM
- GI50 ([1]; read-out: pGI50 (converted)): 3550 nM

SMILES: COc1ccc(NC(=S)N2N=C(c3ccc4ccccc4c3O)CC2c2ccc(OC)cc2)cc1 (stereo not given)
- GI50 ([1]; read-out: GI50): 234 nM
- GI50 ([1]; read-out: pGI50 (converted)): 234 nM

SMILES: COc1cccc(C2CC(c3ccc4ccccc4c3O)=NN2C(=S)Nc2ccc(OC)cc2OC)c1 (stereo not given)
- GI50 ([1]; read-out: GI50): 2430 nM
- GI50 ([1]; read-out: pGI50 (converted)): 2450 nM

SMILES: COc1cccc(NC(=S)N2N=C(c3ccc4ccccc4c3O)CC2c2ccccc2OC)c1 (stereo not given)
- GI50 ([1]; read-out: GI50): 445 nM
- GI50 ([1]; read-out: pGI50 (converted)): 447 nM

SMILES: COc1ccc(C2CC(c3ccc4ccccc4c3O)=NN2C(=S)Nc2ccccc2)cc1 (stereo not given)
- GI50 ([1]; read-out: GI50): 239 nM
- GI50 ([1]; read-out: pGI50 (converted)): 240 nM

From ChEMBL document CHEMBL4425179, “Colorectal anticancer activities of polymethoxylated 3-naphthyl-5-phenylpyrazoline-carbothioamides” (Bioorg Med Chem Lett, 2016)
